Columns and labels:
Test in all cases: relative viability (nuclei count vs DMSO), 5 days (fraction); higher = more cells survive
[1] = compound: C[C@@]1(C(=O)Nc2ccc(F)nc2)CCCN1c1nc(Nc2cc(C3CC3)n[nH]2)c2cccn2n1 + Nc1ncn([C@H]2C[C@H](O)[C@@H](CO)O2)c(=O)n1 [Decitabine] (partner 2 µM)
How it was run: (§1)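 Nuclei were stained with Hoechst during a one-step fixation (final 0.05% Triton X-100, 1% formaldehyde, 1 ug/ml Hoechst) carried out 5 days after dosing, then counted on 4× images. The cells, lung cancer lines in 1536-well plates, had been dosed by pin tool the day after seeding with one drug alone or a fixed anchor-drug dose plus five library-drug doses (not always all listed) in √10 steps. Relative viability is the nuclei count in treated wells divided by that in vehicle wells, and each value is the median of duplicate plates.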

[2] = compound: C[C@@]1(C(=O)Nc2ccc(F)nc2)CCCN1c1nc(Nc2cc(C3CC3)n[nH]2)c2cccn2n1 + CC(=O)c1c(C)c2cnc(Nc3ccc(N4CCNCC4)cn3)nc2n(C2CCCC2)c1=O [Palbociclib] (partner 0.5 µM)
How it was run: as §1

Motesanib + Crizotinib = compound: CC1(C)CNc2cc(NC(=O)c3cccnc3NCc3ccncc3)ccc21 [Motesanib] + C[C@@H](Oc1cc(-c2cnn(C3CCNCC3)c2)cnc1N)c1c(Cl)ccc(F)c1Cl [Crizotinib] (partner 1 µM)
How it was run: as §1

Motesanib + Linsitinib = compound: CC1(C)CNc2cc(NC(=O)c3cccnc3NCc3ccncc3)ccc21 [Motesanib] + C[C@]1(O)C[C@@H](c2nc(-c3ccc4ccc(-c5ccccc5)nc4c3)c3c(N)nccn32)C1 [Linsitinib] (partner 1 µM)
How it was run: as §1

Row | Cell Line | relative viability ([1]; first compound 0.04 µM) | relative viability ([1]; first compound 0.1265 µM) | relative viability ([1]; first compound 0.4 µM) | relative viability ([1]; first compound 1.265 µM) | relative viability ([2]; first compound 0.04 µM) | relative viability ([2]; first compound 0.1265 µM) | relative viability ([2]; first compound 0.4 µM) | relative viability ([2]; first compound 1.265 µM) | relative viability (Motesanib + Crizotinib; first compound 0.01 µM) | relative viability (Motesanib + Crizotinib; first compound 0.03162 µM) | relative viability (Motesanib + Crizotinib; first compound 0.1 µM) | relative viability (Motesanib + Crizotinib; first compound 0.3162 µM) | relative viability (Motesanib + Crizotinib; first compound 1 µM) | relative viability (Motesanib + Linsitinib; first compound 0.01 µM) | relative viability (Motesanib + Linsitinib; first compound 0.03162 µM) | relative viability (Motesanib + Linsitinib; first compound 0.1 µM) | relative viability (Motesanib + Linsitinib; first compound 0.3162 µM) | relative viability (Motesanib + Linsitinib; first compound 1 µM)
1 | NCI-H1355 | 0.388 | 0.313 | 0.337 | 0.352 | 0.312 | 0.269 | 0.242 | 0.321 | 1.12 | 1.14 | 0.994 | 1.07 | 1.05 | 0.792 | 0.75 | 0.801 | 0.865 | 0.834
2 | NCI-H1437 | 0.553 | 0.517 | 0.521 | 0.432 | 0.302 | 0.278 | 0.252 | 0.234 | 0.888 | 0.996 | 0.963 | 0.95 | 1.05 | 0.972 | 1.08 | 1.01 | 1.01 | 1.13
3 | NCI-H1651 | 0.567 | 0.527 | 0.565 | 0.45 | 0.494 | 0.442 | 0.439 | 0.491 | 0.836 | 0.835 | 0.786 | 0.912 | 0.838 | 0.917 | 0.912 | 0.966 | 0.944 | 1.08
4 | NCI-H1666 | 0.66 | 0.644 | 0.587 | 0.492 | 0.647 | 0.627 | 0.599 | 0.603 | 1.02 | 1.06 | 0.949 | 0.958 | 1.03 | 0.966 | 0.83 | 0.786 | 0.788 | 0.753
5 | NCI-H1734 | 0.456 | 0.389 | 0.405 | 0.437 | 0.275 | 0.236 | 0.226 | 0.282 | 0.685 | 0.645 | 0.654 | 0.68 | 0.673 | 0.843 | 0.951 | 0.897 | 0.976 | 1.01
6 | NCI-H1755 | 0.698 | 0.687 | 0.704 | 0.74 | 0.403 | 0.433 | 0.469 | 0.494 | 0.862 | 0.867 | 0.893 | 0.91 | 0.882 | 1.02 | 0.999 | 1.03 | 1.02 | 1.02
7 | NCI-H1792 | 0.401 | 0.235 | 0.249 | 0.304 | 0.417 | 0.742 | 0.268 | 0.393 | 0.931 | 0.92 | 1.01 | 1.05 | 0.968 | 0.569 | 0.492 | 0.625 | 0.561 | 0.492
8 | NCI-H1915 | 0.266 | 0.278 | 0.251 | 0.258 | 0.534 | 0.507 | 0.52 | 0.551 | 0.897 | 0.851 | 0.875 | 0.927 | 0.947 | 1.09 | 1.19 | 1.11 | 1.16 | 1.08
9 | NCI-H1944 | 0.372 | 0.377 | 0.376 | 0.386 | 0.272 | 0.237 | 0.251 | 0.294 | 1.08 | 1.06 | 1.17 | 1.02 | 1.17 | 1.2 | 1.21 | 1.18 | 1.32 | 1.21

Source: the supplement of paper PMC10307832
